Literature values in patent US5348946A, “Heteroanthracycline antitumor analogs” (Biochem Immunosystems, Inc., priority 1991, dated 1994).

details: compared with daunorubicin and doxorubicin; cited from earlier work

SMILES | antileukemic activity
CC(=O)[C@@H]1Cc2c(c(O)c3oc4ccccc4c(=O)c3c2O)[C@@H](O[C@H]2C[C@H](N)[C@H](O)[C@H](C)O2)C1 [Compound 3] | antileukemic activity, but lower than that of the parent antibiotics daunorubicin and doxorubicin
CC(=O)[C@]1(O)Cc2c(c(O)c3oc4ccccc4c(=O)c3c2O)[C@@H](O[C@H]2C[C@H](N)[C@H](O)[C@H](C)O2)C1 [Compound 4] | antileukemic activity, but lower than that of the parent antibiotics daunorubicin and doxorubicin
CC(=O)[C@]1(O)Cc2c(c(O)c3oc4ccccc4c(=O)c3c2O)[C@@H](O[C@H]2C[C@H](NC(=O)C(F)(F)F)[C@H](O)[C@H](C)O2)C1 [Compound 5] | antileukemic activity, but lower than that of the parent antibiotics daunorubicin and doxorubicin
